Here are results for two compounds from the NIST ThermoML archive (doi:10.1021/je101180r).

The vapor or sublimation pressure is the pressure of vapour in equilibrium with the condensed phase.

Numbers after ± are expanded uncertainties.

The conditions of this data set: Liquid, Ebulliometric method (Recirculating still).

With `Cc1cccnc1N` [2-amino-3-methylpyridine], the “vapor or sublimation pressure” value (402.57 K) stood at 5.158 ± 0.11 kPa and the “vapor or sublimation pressure” value (413.74 K) was 8.041 ± 0.18 kPa.

With `CN(C)c1ccccc1` [N,N-dimethylaniline], the “vapor or sublimation pressure” value by setting is: (373.7 K) 5.158 ± 0.11 kPa; (384.96 K) 8.041 ± 0.18 kPa.
